Experimental findings from patent EP0745595A1, “3-(3-Aryloxyphenyl)-1-(substituted methyl)-s-triazine-2,4,6-oxo or thiotrione herbicidal agents” (American Cyanamid Company, priority 1995, dated 1996) are described below.

The structures appear in SMILES notation.

What all share (assay type): in vivo
In one series the test system is SAGITTARIA PYGMAEA, L. In words: Preemergence weed control under flooded paddy conditions, SAGPY (Arrowhead (Pygmaea)). The conditions noted are these: preemergence, 3-4 weeks after treatment. The protocol: (§1) Results of herbicide evaluation are expressed on a rating scale (0-9). The scale is based upon a visual observation of plant stand, vigor, malformation, size, chlorosis and overall plant appearance as compared with a control.
(§2) Preemergence herbicidal activity under flooded paddy conditions is determined as follows: plant seeds or propagating organs are planted in the top 0.5 cm of silt loam soil in 32 oz. plastic containers with a diameter of 10.5 cm and no drainage holes. Water is added to these containers and maintained at 1.5 to 3 cm above the soil surface for the duration of the experiment. […] The treated containers are placed on greenhouse benches and cared for according to normal greenhouse procedures.- Three to four weeks after treatment the test is terminated and each container is examined and herbicidal effect rated according to the rating system provided in Example 40. The compounds evaluated are reported by compound number given in Example 40.
(§3) Plant species employed in this example are reported by header abbreviation, common name and scientific name.

The next series deals with CHENOPODIUM ALBUM, L. In words: Preemergence herbicidal evaluation, CHEAL (Lambsquarters, Common). To be noted: rated four to five weeks after treatment.
Source text: as §1
The preemergence herbicidal activity of the test compounds of the present invention is exemplified by the following tests in which the seeds of a variety of monocotyledonous and dicotyledonous plants are separately mixed with potting soil and planted on top of approximately one inch of soil in separate pint cups. […] The treated cups are then placed on greenhouse benches, watered and cared for in accordance with conventional greenhouse procedures. From four to five weeks after treatment, the tests are terminated and each cup is examined and rated according to the rating system provided in Example 40.
The compounds evaluated are reported by compound number given in Example 40.

Series [1] deals with CYPERUS SEROTINUS, ROTTB. The experiment in a line: Preemergence weed control under flooded paddy conditions, CYPSE (Flatsedge). The conditions noted are these: preemergence, 3-4 weeks after treatment. The protocol:
as §1, §2, §3

Series [2] relates to ORYZA SATIVA, L. TEBONNET
The experiment in a line: Rice tolerance to post-transplant applications under flooded paddy conditions, ORYSAT (Rice, Tebonnet). The conditions noted are these: post-transplant rice, 3-4 weeks after treatment. The protocol:
as §1
The tolerance of transplanted rice to post-transplanted herbicide applications is determined as follows: two ten-day-old rice seedlings (CV. Tebonnet) are transplanted into a silt loam soil in 32 oz. plastic containers with a diameter of 10.5 cm and no drainage holes. After transplanting the containers are flooded and the water level is maintained at 1.5 to 3 cm above the soil surface. […] The treated containers are placed on greenhouse benches, watered such that the water level is maintained as stated above, and cared for according to normal greenhouse procedures. Three to four weeks after treatment the test is terminated and each container is examined and herbicidal effect rated according to the rating system provided in Example 40. The compounds evaluated are reported by compound number given in Example 40.
as §3

In a further series the test system is CYPERUS IRIA. The experiment in a line: Preemergence weed control under flooded paddy conditions, CYPIR (Rice Flatsedge). The conditions noted are these: preemergence, 3-4 weeks after treatment. The protocol: as §1, §2, §3
The next series deals with […], PRESL. In words: Preemergence weed control under flooded paddy conditions, MOOVA (Monochoria). The conditions noted are these: preemergence, 3-4 weeks after treatment. The protocol: as §1
Preemergence herbicidal activity under flooded paddy conditions is determined as follows: plant seeds or propagating organs are planted in the top 0.5 cm of silt loam soil in 32 oz. plastic containers with a diameter of 10.5 cm and no drainage holes. Water is added to these containers and maintained at 1.5 to 3 cm above the soil surface for the duration of the experiment. The test compounds are applied as aqueous/acetone mixtures 50/50 v/v pipetted directly into the flood water to give the equivalent of about 0.5, 0.25, 0.125 and 0.063 kg/ha of active ingredient. The treated containers are placed on greenhouse benches and cared for according to normal greenhouse procedures.- Three to four weeks after treatment the test is terminated and each container is examined and herbicidal effect rated according to the rating system provided in Example 40. The compounds evaluated are reported by compound number given in Example 40.
as §3

For `COC(=O)Cn1c(=O)n(C)c(=O)n(-c2cc(Oc3c(Cl)cc(Cl)cc3Cl)ccc2[N+](=O)[O-])c1=O` [Compound 33, Methyl tetrahydro-3-methyl-5-[2-nitro-5-(2,4,6-trichlorophenoxy)phenyl]-2,4,6-trioxo-s-triazine-1(2H)-acetate], the “Herbicidal effect rating, SAGPY” value with SAGITTARIA PYGMAEA, L. (0.063 kg/ha) came out at 0.0; in the series on SAGITTARIA PYGMAEA, L. (0.125 kg/ha), 0.0; in the series with SAGITTARIA PYGMAEA, L. (0.250 kg/ha), 0.0; in the series with SAGITTARIA PYGMAEA, L. (0.500 kg/ha), 0.0. Moreover, the CHEAL herbicidal rating in the series on CHENOPODIUM ALBUM, L. (Rate 0.125 kg/ha) turned out to be 9.0; in the series with CHENOPODIUM ALBUM, L. (Rate 0.250 kg/ha) it was 9.0; in the series on CHENOPODIUM ALBUM, L. (Rate 0.500 kg/ha), 9.0. In addition, the “Herbicidal effect rating, CYPSE” value in series [1] (0.063 kg/ha), in series [1] (0.125 kg/ha), in series [1] (0.250 kg/ha) and in series [1] (0.500 kg/ha) was 0.0 in each case. Besides, the “Herbicidal effect rating, ORYSAT” value in series [2] (0.063 kg/ha) was determined as 3.0; in series [2] (0.125 kg/ha) it was 3.0; in series [2] (0.250 kg/ha), 3.0; in series [2] (0.500 kg/ha), 4.0. Also, the “Herbicidal effect rating, CYPIR” value in the series on CYPERUS IRIA (0.063 kg/ha), in the series with CYPERUS IRIA (0.125 kg/ha), in the series on CYPERUS IRIA (0.250 kg/ha) and in the series on CYPERUS IRIA (0.500 kg/ha) was 9.0 each time. The “Herbicidal effect rating, MOOVA” value in series […], PRESL. (0.063 kg/ha) was 9.0; in series […], PRESL. (0.125 kg/ha) it was 9.0; in series […], PRESL. (0.250 kg/ha), 9.0; in series […], PRESL. (0.500 kg/ha), 9.0.
